Test results: US8318757B2, “Substituted isoxazoline compound and pest control agent” (Nissan Chemical Industries, Ltd., priority 2007, dated 2012)

Legend:
Type in all cases: in vivo
Plutella xylostella = experiment: whole plant or invertebrate; settings: in Brassica oleracea, 144 h
Procedure: (§1) A 10% emulsifiable concentrate of the compound of the present invention (depending on the type of the compound, a 10% wettable powder was subjected to the test) was diluted with water containing a spreader to prepare a drug solution in a concentration of 10 ppm. In this drug solution, a leaf of cabbage was immersed for about 10 seconds and was air-dried and then put into a petri dish. In the petri dish, five 2 instar larvae of Plutella xylostella per petri dish were released and the petri dish was capped and stored in a thermostatic room of 25° C. The number of killed larvae after 6 days was measured and the mortality was calculated from the following calculation formula: Mortality (%)=(number of killed insect/number of released insect)×100. Here, the test was carried out on the duplicate samples.

Spodoptera litura = experiment: whole plant or invertebrate; settings: in Brassica oleracea, 144 h
Procedure: as §1, with “Spodoptera litura” for “Plutella xylostella”, “same” for “following”, “formula as that in Test Example 1.” for “formula: Mortality (%)=(number of killed insect/number of released insect)×100.”

Homona magnanima = experiment: Mortality Test for Homona magnanima; settings: in Brassica oleracea, 144 h
Procedure: as §1, with “of 100” for “of 10”, “of Homona magnanima” for “of Plutella xylostella”, “the same” for “the following”, “calculation formula as that in Test Example 1.” for “calculation formula: Mortality (%)=(number of killed insect/number of released insect)×100.”

Myzus persicae = experiment: whole plant or invertebrate; settings: in Brassica oleracea, 144 h
Procedure: In a glass petri dish having an inner diameter of 3 cm, a wet absorbent cotton was laid and on the cotton, a leaf of cabbage cut out so as to have the same diameter as the inner diameter of the petri dish was laid, followed by releasing four apterous imagines of Myzus persicae on the leaf. After one day, a 10% emulsifiable concentrate of the compound of the present invention (depending on the type of the compound, a 10% wettable powder was subjected to the test) was diluted with water containing a spreader to prepare a drug solution in a concentration of 500 ppm. The drug solution was sprayed using a rotary spray tower (2.5 mg/cm^2), and the petri dish was capped and stored in a thermostatic room of 25° C. The number of killed imagines after 6 days was measured and the mortality was calculated from the same calculation formula as that in Test Example 1. Here, the test was carried out on the duplicate samples.

Liriomyza trifolii = experiment: whole plant or invertebrate; settings: in Phaseolus vulgaris, 144 h
Procedure: A 10% emulsifiable concentrate of the compound of the present invention (depending on the type of the compound, a 10% wettable powder was subjected to the test) was diluted with water containing a spreader to prepare a drug solution in a concentration of 500 ppm. In this drug solution, a leaf of kidney bean which was cut out to a diameter of 7 cm, on which Liriomyza trifolii laid eggs (10 eggs/leaf) was immersed for about 10 seconds and was air-dried and then laid on a wet filtration paper laid in a styrol cup having an inner diameter of 7 cm. The styrol cup was capped and stored in a thermostatic room of 25° C. The number of killed larvae after 6 days was measured and the mortality was calculated from the same calculation formula as that in Test Example 1. Here, the test was carried out on the duplicate samples.

Tetranychus urticae = experiment: whole plant or invertebrate; settings: in Phaseolus vulgaris, 144 h
Procedure: (§2) In a styrol cup having an inner diameter of 7 cm, a wet filtration paper was laid and on the paper, a leaf of kidney bean cut out so as to have the same diameter as the inner diameter of the cup was laid, followed by inoculating ten larvae of Tetranychus urticae per leaf with the leaf. A 10% emulsifiable concentrate of the compound of the present invention (depending on the type of the compound, a 10% wettable powder was subjected to the test) was diluted with water containing a spreader to prepare a drug solution in a concentration of 500 ppm. The drug solution was sprayed using a rotary spray tower in an amount of 2.5 mL per styrol cup, and the cup was capped and stored in a thermostatic room of 25° C. The number of killed larvae after 6 days was measured and the mortality was calculated from the same calculation formula as that in Test Example 1. Here, the test was carried out on the duplicate samples.

Spodoptera exigua = experiment: Mortality Test for Spodoptera exigua; settings: in Brassica oleracea, 144 h
Procedure: as §1, with “of 100” for “of 10”, “of Spodoptera exigua” for “of Plutella xylostella”, “the same” for “the following”, “calculation formula as that in Test Example 1.” for “calculation formula: Mortality (%)=(number of killed insect/number of released insect)×100.”

[1] = system: Frankliniella occidentalis; experiment: whole plant or invertebrate; settings: in Phaseolus vulgaris, 48 h
Procedure: as §2, with “ten 1 instar” for “ten”, “Frankliniella occidentalis” for “Tetranychus urticae”, “2” for “6”

Nilaparvata lugens = experiment: whole plant or invertebrate; settings: in Oryza sativa, 144 h
Procedure: A 10% emulsifiable concentrate of the compound of the present invention (depending on the type of the compound, a 10% wettable powder was subjected to the test) was diluted with water containing a spreader to prepare a drug solution in a concentration of 500 ppm. In this drug solution, a leaf sheath of rice was immersed for about 10 seconds and was air-dried and then put into a test tube. In the test tube, five 2 instar larvae of Nilaparvata lugens per test tube were released and the test tube was capped with a sponge and stored in a thermostatic room of 25° C. The number of killed larvae after 6 days was measured and the mortality was calculated from the same calculation formula as that in Test Example 1. Here, the test was carried out on the duplicate samples.

Helicoverpa armigera = experiment: Mortality Test for Helicoverpa armigera (Comparative Test); settings: in Brassica oleracea, 144 h
Procedure: 10% emulsifiable concentrates of the compound of the present invention and a comparative compound were diluted with water containing a spreader to prepare drug solutions in a predetermined concentration. In each of the drug solutions, a leaf of cabbage was immersed for about 10 seconds and was air-dried and put into a petri dish. In the petri dish, seven 3 instar larvae of Helicoverpa armigera per petri dish were released and the petri dish was capped with a lid having a pore and stored in a thermostat room of 25° C. After 2 days of the treatment, an artificial fertilizer (1 cm^3) was added into the petri dish. The number of killed larvae after 6 days was measured and the mortality was calculated from the calculation formula: Mortality (%)=(number of killed insect/number of released insect)×100. Here, the test was carried out on the duplicate samples.

Row | Structure (SMILES) | mortality at 100 ppm (Plutella xylostella) [%] | mortality at 100 ppm (Spodoptera litura) [%] | mortality at 100 ppm (Homona magnanima) [%] | mortality at 500 ppm (Liriomyza trifolii) [%] | mortality at 10 ppm (Plutella xylostella) [%] | mortality at 10 ppm (Spodoptera litura) [%] | mortality at 500 ppm [1] [%] | mortality at 500 ppm (Myzus persicae) [%] | mortality at 500 ppm (Tetranychus urticae) [%] | also measured
1 | CCSC(C(=O)NCc1ccc(C2=NOC(c3cc(C(F)(F)F)cc(C(F)(F)F)c3)(C(F)(F)F)C2)cc1Cl)[S+]([O-])CC (stereo not drawn) [1-220, N-[4-[5-[3,5-bis(trifluoromethyl)phenyl]-5-trifluoromethyl-4,5-dihydroisoxazole-3-yl]-2-chlorophenyl]methyl-2-ethylsulfinyl-2-(ethylthio)acetamide] | ≥ 80 | ≥ 80 | ≥ 80 | ≥ 80 |  |  |  |  |  | mortality at 100 ppm (Myzus persicae): ≥ 80%; mortality at 100 ppm (Tetranychus urticae): ≥ 80%
2 | CSCC(=O)NC(C)c1ccc(C2=NOC(c3cc(C(F)(F)F)cc(C(F)(F)F)c3)(C(F)(F)F)C2)cc1 (stereo not drawn) [1-001, N-[1-[4-[5-[3,5-bis(trifluoromethyl)phenyl]-5-trifluoromethyl-4,5-dihydroisoxazole-3-yl]phenyl]ethyl]-2-(methylthio)acetamide] |  |  | ≥ 80 |  | ≥ 80 | ≥ 80 | ≥ 80 | ≥ 80 | ≥ 80 | mortality at 100 ppm (Spodoptera exigua): ≥ 80%; mortality at 500 ppm (Nilaparvata lugens): ≥ 80%
3 | CCSC(C(=O)NCc1ccc(C2=NOC(c3cc(C(F)(F)F)cc(C(F)(F)F)c3)(C(F)(F)F)C2)cc1Cl)S(=O)(=O)CC (stereo not drawn) [1-225, N-[4-[5-[3,5-bis(trifluoromethyl)phenyl]-5-trifluoromethyl-4,5-dihydroisoxazole-3-yl]-2-chlorophenyl]methyl-2-ethylsulfonyl-2-(ethylthio)acetamide] | ≥ 80 | ≥ 80 |  |  |  |  |  | ≥ 80 | ≥ 80 | 
4 | C[S+]([O-])C(C(=O)NCc1ccc(C2=NOC(c3cc(C(F)(F)F)cc(C(F)(F)F)c3)(C(F)(F)F)C2)cc1Cl)[S+](C)[O-] (stereo not drawn) [1-211, N-[4-[5-[3,5-bis(trifluoromethyl)phenyl]-5-trifluoromethyl-4,5-dihydroisoxazole-3-yl]-2-chlorophenyl]methyl-2,2-bis(methylsulfinyl)acetamide] | ≥ 80 | ≥ 80 |  | ≥ 80 |  |  |  |  |  | mortality at 100 ppm (Tetranychus urticae): ≥ 80%
5 | O=C(CSCC(F)(F)F)NCc1ccc(C2=NOC(c3cc(Cl)c(Cl)c(Cl)c3)(C(F)(F)F)C2)cc1Cl (stereo not drawn) [1-029, N-[2-chloro-4-[5-(3,4,5-trichlorophenyl)-5-trifluoromethyl-4,5-dihydroisoxazole-3-yl]phenyl]methyl-2-(2,2,2-trifluoroethylthio)acetamide] |  |  | ≥ 80 |  | ≥ 80 | ≥ 80 | ≥ 80 | ≥ 80 | ≥ 80 | mortality at 500 ppm (Nilaparvata lugens): ≥ 80%
6 | CS(CC(=O)NCc1ccc(C2=NOC(c3cc(Cl)c(Cl)c(C(F)(F)F)c3)(C(F)(F)F)C2)cc1Br)=NC#N (stereo not drawn) [1-103, N-[2-bromo-4-[5-[3,4-dichloro-5-(trifluoromethyl)phenyl]-5-trifluoromethyl-4,5-dihydroisoxazole-3-yl]phenyl]methyl-2-[N-(cyano)methylsulfinimidoyl]acetamide] | ≥ 80 | ≥ 80 |  |  |  |  |  |  |  | 
7 | CSCC(=O)NCc1ccc(C2=NOC(c3cc(Cl)cc(Cl)c3)(C(F)(F)F)C2)cc1Cl (stereo not drawn) [Comparative compound A] |  |  |  |  |  |  |  |  |  | mortality at 1 ppm (Helicoverpa armigera): 0%; mortality at 3 ppm (Helicoverpa armigera): 57.1%; mortality at 10 ppm (Helicoverpa armigera): 92.9%; mortality at 33 ppm (Helicoverpa armigera): 100%
8 | CCS(=N)(=O)CC(=O)NCc1ccc(C2=NOC(c3cc(C(F)(F)F)cc(C(F)(F)F)c3)(C(F)(F)F)C2)cc1Cl (stereo not drawn) [1-173, N-[2-chloro-4-[5-[3,5-bis(trifluoromethyl)phenyl]-5-trifluoromethyl-4,5-dihydroisoxazole-3-yl]phenyl]methyl-2-(ethylsulfonimidoyl)acetamide] |  |  |  | ≥ 80 | ≥ 80 | ≥ 80 | ≥ 80 |  | ≥ 80 | 
9 | COCSCC(=O)NCc1ccc(C2=NOC(c3cc(Cl)c(Cl)c(Cl)c3)(C(F)(F)F)C2)cc1Cl (stereo not drawn) [1-030, N-[2-chloro-4-[5-(3,4,5-trichlorophenyl)-5-trifluoromethyl-4,5-dihydroisoxazole-3-yl]phenyl]methyl-2-(methoxymethylthio)acetamide] | ≥ 80 | ≥ 80 |  |  |  |  |  |  |  | 
